Earlier results, collected in patent US20060079481A1, “Method of treating/preventing mucositis” (priority 2004, published 2006).

B1: filgrastim: a granulocyte colony-stimulating factor (protein, chains of the INN, looked up)
chain: MTPLGPASSLPQSFLLKCLEQVRKIQGDGAALQEKLCATYKLCHPEELVLLGHSLGIPWAPLSSCPSQALQLAGCLSQLHSGLFLYQGLLQALEGISPELGPTLDTLQLDVADFATTIWQQMEELGMAPALQPTQGAMPAFASAFQRRAGGVLVASHLQSFLEVSYRVLRHLAQP

Columns and labels:
oral mucositis [1] = settings: Dodd et al. 1996
oral mucositis [2] = settings: for effect in oral mucositis / risk of indirect mucotoxicity from bacteria and fungi: literature reports; for risk of indirect mucotoxicity from bacteria and fungi: prophylactic use

| Molecule | effect in oral mucositis (oral mucositis [2]) | risk of indirect mucotoxicity from bacteria and fungi (oral mucositis [2]) | also measured |
| --- | --- | --- | --- |
| O=c1[nH]cc(F)c(=O)[nH]1 [5-fluorouracil] | – | – | prevalence of chemotherapy-induced oral mucositis (oral mucositis [1]): 75% |
| Oc1ncnc2[nH]ncc12 [allopurinol] | failed to show effect | – | – |
| [H]/N=C(\N/C(=N/[H])NCCCCCCNC(=N)NC(=N)Nc1ccc(Cl)cc1)Nc1ccc(Cl)cc1 [chlorhexidine] | – | reduce the risk | – |
| Clc1ccccc1C(c1ccccc1)(c1ccccc1)n1ccnc1 [clotrimazole] | – | reduce the risk | – |
| C[C@@H]1[C@H](O)[C@@H](C)/C=C/C=C/CC/C=C/C=C/C=C/C=C/C(O[C@H]2O[C@H](C)[C@@H](O)[C@H](N)[C@@H]2O)CC2O[C@](O)(CC(O)C(O)CCC(O)CC(O)CC(O)CC(=O)O[C@H]1C)CC(O)C2C(=O)O (stereo partly drawn) [nystatin] | – | reduce the risk | – |
| CC(=O)CCCCn1c(=O)c2c(ncn2C)n(C)c1=O [pentoxifylline] | failed to show effect | – | – |
| CCCCC[C@H](O)/C=C/[C@H]1[C@H](O)CC(=O)[C@@H]1C/C=C\CCCC(=O)O [prostaglandin E2] | failed to show effect | – | – |
| Sucralfate | – | – | benefit in oral mucositis (oral mucositis [2]; patients receiving a cisplatin/fluorouracil regimen for various solid tumors (Pfeiffer et al. 1990)): modest benefit |
| B1 | failed to show effect | – | – |
